Literature values, collected in patent US9381220B2, “Sceletium extract and uses thereof” (H. L. Hall & Sons Limited, priority 2009, dated 2016).

What was measured:
PDE4 = conditions: Napoletano et al. 2001
5-HT uptake = 5-HT uptake (Homo sapiens, UniProt P31645); conditions: as described in U.S. Pat. No. 6,288,104
[1] = fermentation, exposure to light, exposure to heat, aqueous medium

Sequence of 5-HT uptake (P31645 whole entry): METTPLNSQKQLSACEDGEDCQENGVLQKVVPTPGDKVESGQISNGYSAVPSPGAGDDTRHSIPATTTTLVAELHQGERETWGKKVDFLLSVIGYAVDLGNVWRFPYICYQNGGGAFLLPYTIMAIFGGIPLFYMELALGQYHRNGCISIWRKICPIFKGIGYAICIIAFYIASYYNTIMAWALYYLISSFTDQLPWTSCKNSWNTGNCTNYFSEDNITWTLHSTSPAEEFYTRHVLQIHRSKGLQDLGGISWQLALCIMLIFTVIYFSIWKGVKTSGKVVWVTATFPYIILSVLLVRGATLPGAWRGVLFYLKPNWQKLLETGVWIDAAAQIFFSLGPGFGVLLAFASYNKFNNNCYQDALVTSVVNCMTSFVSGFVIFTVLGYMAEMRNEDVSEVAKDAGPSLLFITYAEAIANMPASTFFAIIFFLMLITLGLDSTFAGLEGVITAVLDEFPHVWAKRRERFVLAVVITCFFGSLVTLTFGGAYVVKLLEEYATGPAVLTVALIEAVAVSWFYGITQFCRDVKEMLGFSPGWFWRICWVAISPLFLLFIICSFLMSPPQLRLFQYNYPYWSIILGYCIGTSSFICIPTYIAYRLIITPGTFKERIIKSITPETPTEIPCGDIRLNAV

## COc1ccc(C23CCC(=O)CC2N(C)CC3)cc1OC.Cl (stereo not drawn) [Mesembrine hydrochloride]
PDE4
  PDE4 inhibition: weak PDE4 inhibitor

## COc1ccc(C23C=CC(O)CC2N(C)CC3)cc1OC (stereo not drawn) [mesembrenol]
5-HT uptake
  5-HT uptake inhibitory activity: potent 5-HT uptake inhibitory activity

## COc1ccc([C@@]23CCC(=O)C[C@@H]2N(C)CC3)cc1OC [mesembrine]
[1]
  stability: unstable
